Test results taken from PubChem BioAssay (NCI).
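Growth conditions: 96-well plates. Treatment: test compound, 48 hours, 5 concentrations. Analysis: linear interpolation between bracketing concentrations; unreached endpoints set to highest concentration. The concentration for full growth arrest is given as TGI.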

Assays:
Test in all cases: DTP human tumour cell line panel, 48 h
[1] = system: LOX IMVI melanoma
[2] = system: RXF 393 renal
[3] = system: HT29 colon
[4] = system: XF 498 CNS
[5] = system: M14 melanoma
[6] = system: IGROV1 ovarian
[7] = system: NCI-H226 lung
[8] = system: SNB-75 CNS
[9] = system: RXF-631 renal
[10] = system: HL-60(TB) leukemia
[11] = system: LXFL 529 NSCLC
[12] = system: U251 CNS
[13] = system: SK-MEL-28 melanoma
[14] = system: A549 NSCLC
[15] = system: SF-268 CNS
[16] = system: SF-295 CNS
[17] = system: A498 renal
[18] = system: UACC-257 melanoma
[19] = system: SNB-19 CNS
[20] = system: SN12C renal
[21] = system: UACC-62 melanoma
[22] = system: HOP-18 NSCLC
[23] = system: MALME-3M melanoma
[24] = system: NCI-H460 lung
[25] = system: HCT-116 colon
[26] = system: CCRF-CEM leukemia
[27] = system: SK-MEL-5 melanoma
[28] = system: MOLT-4 leukemia
[29] = system: SNB-78 CNS
[30] = system: HCC-2998 colon
[31] = system: EKVX NSCLC
[32] = system: SW-620 colon
[33] = system: COLO 205 colon
[34] = system: HOP-92 NSCLC
[35] = system: RPMI-8226 leukemia
[36] = system: DMS 114 small cell lung
[37] = system: SK-MEL-2 melanoma
[38] = system: DLD-1 colon
[39] = system: OVCAR-5 ovarian
[40] = system: OVCAR-8 ovarian
[41] = system: M19-MEL melanoma
[42] = system: UO-31 renal
[43] = system: OVCAR-4 ovarian
[44] = system: HOP-62 NSCLC
[45] = system: OVCAR-3 ovarian
[46] = system: TK-10 renal
[47] = system: ACHN renal
[48] = system: 786-0 renal
[49] = system: NCI-H23 lung
[50] = system: KM20L2 colon
[51] = system: KM12 colon
[52] = system: K-562 leukemia
[53] = system: SR leukemia
[54] = system: SK-OV-3 ovarian
[55] = system: HCT-15 colon
[56] = system: SF-539 CNS
[57] = system: NCI-H522 lung
[58] = system: CAKI-1 renal

Q: How did the TGI [1] turn out when `NC(=O)/C(=N\NC(=O)c1cc2ccccc2cc1O)C1C(=O)N(c2ccccc2)N=C1N` (stereo not drawn) was run?
A: Its TGI is over 100 µM.

Q: What about the TGI [2] of the same compound?
A: Its TGI is over 100 µM.

Q: What about the TGI [3] of the same compound?
A: The TGI was over 100 µM.

Q: And the TGI [4]?
A: The TGI was over 100 µM.

Q: What about the TGI [5] of the same compound?
A: The TGI was over 100 µM.

Q: And the TGI [6]?
A: The TGI was over 100 µM.

Q: And the TGI [7]?
A: The TGI was over 100 µM.

Q: What about the TGI [8] of the same compound?
A: Its TGI is over 100 µM.

Q: And the TGI [9]?
A: The TGI was over 100 µM.

Q: What about the TGI [10] of the same compound?
A: Its TGI is 47.2 µM.

Q: What about the TGI [11] of the same compound?
A: The TGI was over 100 µM.

Q: What about the TGI [12] of the same compound?
A: Its TGI is over 100 µM.

Q: And the TGI [13]?
A: Its TGI is over 100 µM.

Q: And the TGI [14]?
A: The TGI was over 100 µM.

Q: What about the TGI [15] of the same compound?
A: Its TGI is over 100 µM.

Q: What about the TGI [16] of the same compound?
A: The TGI was over 100 µM.

Q: What about the TGI [17] of the same compound?
A: Its TGI is 37.5 µM.

Q: And the TGI [18]?
A: The TGI was 65 µM.

Q: And the TGI [19]?
A: Its TGI is over 100 µM.

Q: And the TGI [20]?
A: The TGI was over 100 µM.

Q: What about the TGI [21] of the same compound?
A: The TGI was 35.9 µM.

Q: What about the TGI [22] of the same compound?
A: The TGI was over 100 µM.

Q: And the TGI [23]?
A: The TGI was over 100 µM.

Q: What about the TGI [24] of the same compound?
A: Its TGI is over 100 µM.

Q: What about the TGI [25] of the same compound?
A: Its TGI is over 100 µM.

Q: What about the TGI [26] of the same compound?
A: Its TGI is 87.6 µM.

Q: And the TGI [27]?
A: Its TGI is 37.2 µM.

Q: And the TGI [28]?
A: The TGI was 94.5 µM.

Q: What about the TGI [29] of the same compound?
A: Its TGI is over 100 µM.

Q: What about the TGI [30] of the same compound?
A: Its TGI is over 100 µM.

Q: And the TGI [31]?
A: The TGI was over 100 µM.

Q: What about the TGI [32] of the same compound?
A: Its TGI is over 100 µM.

Q: What about the TGI [33] of the same compound?
A: Its TGI is over 100 µM.

Q: What about the TGI [34] of the same compound?
A: Its TGI is 94.6 µM.

Q: And the TGI [35]?
A: Its TGI is over 100 µM.

Q: And the TGI [36]?
A: Its TGI is 53.2 µM.

Q: What about the TGI [37] of the same compound?
A: The TGI was 83 µM.

Q: And the TGI [38]?
A: Its TGI is over 100 µM.

Q: What about the TGI [39] of the same compound?
A: Its TGI is 54 µM.

Q: What about the TGI [40] of the same compound?
A: The TGI was over 100 µM.

Q: What about the TGI [41] of the same compound?
A: Its TGI is over 100 µM.

Q: And the TGI [42]?
A: Its TGI is over 100 µM.

Q: And the TGI [43]?
A: Its TGI is over 100 µM.

Q: And the TGI [44]?
A: The TGI was over 100 µM.

Q: What about the TGI [45] of the same compound?
A: Its TGI is over 100 µM.

Q: And the TGI [46]?
A: Its TGI is over 100 µM.

Q: And the TGI [47]?
A: Its TGI is over 100 µM.

Q: What about the TGI [48] of the same compound?
A: The TGI was over 100 µM.

Q: What about the TGI [49] of the same compound?
A: The TGI was 56.5 µM.

Q: And the TGI [50]?
A: Its TGI is over 100 µM.

Q: What about the TGI [51] of the same compound?
A: The TGI was over 100 µM.

Q: Which results are given for `COC(=O)C(=O)C(CC(=O)Nc1c(C)cccc1C)C(=O)OC` (stereo not drawn)?
A: TGI [1]: > 100 µM; TGI [2]: > 100 µM; TGI [3]: > 100 µM; TGI [4]: > 100 µM; TGI [5]: > 100 µM; TGI [52]: > 100 µM; TGI [6]: > 100 µM; TGI [7]: > 100 µM; TGI [9]: > 100 µM; TGI [10]: > 100 µM; TGI [11]: > 100 µM; TGI [53]: > 100 µM; TGI [12]: > 100 µM; TGI [13]: > 100 µM; TGI [14]: > 100 µM; TGI [54]: > 100 µM; TGI [15]: > 100 µM; TGI [55]: > 100 µM; TGI [16]: > 100 µM; TGI [18]: > 100 µM; TGI [56]: > 100 µM; TGI [19]: > 100 µM; TGI [20]: > 100 µM; TGI [21]: > 100 µM; TGI [22]: > 100 µM; TGI [23]: > 100 µM; TGI [24]: > 100 µM; TGI [25]: > 100 µM; TGI [26]: > 100 µM; TGI [27]: > 100 µM; TGI [28]: > 100 µM; TGI [29]: > 100 µM; TGI [30]: > 100 µM; TGI [31]: > 100 µM; TGI [32]: > 100 µM; TGI [34]: > 100 µM; TGI [35]: > 100 µM; TGI [36]: > 100 µM; TGI [37]: > 100 µM; TGI [38]: > 100 µM; TGI [57]: > 100 µM; TGI [39]: > 100 µM; TGI [40]: > 100 µM; TGI [41]: > 100 µM; TGI [42]: > 100 µM; TGI [43]: > 100 µM; TGI [44]: > 100 µM; TGI [45]: > 100 µM; TGI [46]: > 100 µM; TGI [47]: > 100 µM; TGI [48]: > 100 µM; TGI [49]: > 100 µM; TGI [58]: > 100 µM; TGI [50]: > 100 µM; TGI [51]: > 100 µM

Q: What does the source list for `CC(=O)/C(=C\c1ccccc1)C(=O)Nc1ccccc1`?
A: TGI [1]: > 100 µM; TGI [2]: > 100 µM; TGI [3]: > 100 µM; TGI [4]: > 100 µM; TGI [5]: > 100 µM; TGI [52]: > 100 µM; TGI [6]: > 100 µM; TGI [7]: > 100 µM; TGI [9]: > 100 µM; TGI [10]: > 100 µM; TGI [11]: > 100 µM; TGI [53]: > 100 µM; TGI [12]: > 100 µM; TGI [14]: > 100 µM; TGI [54]: > 100 µM; TGI [15]: > 100 µM; TGI [16]: > 100 µM; TGI [18]: > 100 µM; TGI [56]: > 100 µM; TGI [19]: > 100 µM; TGI [20]: > 100 µM; TGI [21]: > 100 µM; TGI [22]: > 100 µM; TGI [23]: > 100 µM; TGI [24]: > 100 µM; TGI [25]: > 100 µM; TGI [26]: > 100 µM; TGI [27]: > 100 µM; TGI [28]: > 100 µM; TGI [29]: > 100 µM; TGI [30]: > 100 µM; TGI [31]: > 100 µM; TGI [32]: > 100 µM; TGI [34]: > 100 µM; TGI [35]: > 100 µM; TGI [36]: > 100 µM; TGI [37]: > 100 µM; TGI [38]: > 100 µM; TGI [57]: > 100 µM; TGI [39]: > 100 µM; TGI [40]: > 100 µM; TGI [41]: > 100 µM; TGI [42]: > 100 µM; TGI [43]: > 100 µM; TGI [44]: > 100 µM; TGI [45]: > 100 µM; TGI [46]: > 100 µM; TGI [47]: > 100 µM; TGI [48]: > 100 µM; TGI [49]: > 100 µM; TGI [58]: > 100 µM; TGI [51]: > 100 µM
